# Values joined by “and” are separate entries in the source; they are usually repeats but may differ in a detail not shown here. Equal values may be shown once. “Also recorded” adds a separate entry of the source. Read-outs that look alike come from different tables or passages of the source.
# Columns and labels:
# human NET [1] = target: T1, human NET (Homo sapiens, UniProt P23975); assay: cell-based
# human SERT [2] = target: T2, human SERT (Homo sapiens, UniProt P31645); assay: cell-based
# [3] = after levamisole administration; ref Hess et al., 2013; cited from earlier work
# human NET [4] = target: T1, human NET
# Protocol: (§1) For release studies, HEK-SERT, HEK-NET, or HEK-DAT cells were grown overnight on round glass coverslips (5-mm diameter, 40,000 cells per coverslip) placed in a 96-well plate and preloaded with 0.4 μM [^3H]dopamine, 0.1 μM [^3H]MPP+, or 0.4 μM [^3H]5-HT for 20 min at 37 °C in a final volume of 0.1 mL/well. […] A washout period of 40 min established a stable baseline for efflux of radioactivity; thereafter, substances were added and the experiment was started with the collection of fractions (2 min). At the end of the experiment, cells were lysed in 1% SDS and the released radioactivity was quantified by liquid scintillation counting.
# (§2) The release of [^3H] labelled substrate was expressed as fractional rate (i.e., the radioactivity released within one fraction was expressed as a percentage of the total radioactivity present in the cells at the beginning of that fraction). Drug-induced release was calculated by subtracting the estimated basal release from total release during the first 8 min of drug exposure and is expressed as a percentage of radioactivity in the cell at the beginning of drug exposure. Data were normalized by using cpm values with no substance present (only solvent) as 100%.
# human DAT [5] = target: T3, human DAT (Homo sapiens, UniProt Q01959)
# T3 sequence (Q01959 whole entry): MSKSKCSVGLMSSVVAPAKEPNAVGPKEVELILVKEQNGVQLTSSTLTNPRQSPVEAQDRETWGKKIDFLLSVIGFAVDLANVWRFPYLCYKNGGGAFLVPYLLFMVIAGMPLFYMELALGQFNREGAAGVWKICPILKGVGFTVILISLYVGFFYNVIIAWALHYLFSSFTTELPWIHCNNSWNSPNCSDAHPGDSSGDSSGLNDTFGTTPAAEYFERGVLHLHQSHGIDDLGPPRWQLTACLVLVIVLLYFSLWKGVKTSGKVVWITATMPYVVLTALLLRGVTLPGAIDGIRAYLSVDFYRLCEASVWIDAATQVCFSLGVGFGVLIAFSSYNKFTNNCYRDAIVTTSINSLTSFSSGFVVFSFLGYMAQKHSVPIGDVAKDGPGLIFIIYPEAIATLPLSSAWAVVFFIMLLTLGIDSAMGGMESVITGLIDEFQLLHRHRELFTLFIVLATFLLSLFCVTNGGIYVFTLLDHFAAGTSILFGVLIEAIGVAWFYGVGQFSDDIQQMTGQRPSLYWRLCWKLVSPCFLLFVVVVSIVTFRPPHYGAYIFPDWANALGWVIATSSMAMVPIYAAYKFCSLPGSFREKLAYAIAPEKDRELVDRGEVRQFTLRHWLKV
# Protocol: (§3) In brief, the cells were washed twice with Krebs–Ringer–HEPES buffer (KHB; composition: 25 mM HEPES·NaOH, pH 7.4, 120 mM NaCl, 5 mM KCl, 1.2 mM CaCl2, and 1.2 mM MgSO4 supplemented with 5 mM D-glucose). Then, the diluted reference and sample compounds were added and incubated for 5 min to allow for equilibration with the transporters. Subsequently, the tritiated substrates were added and the reaction was stopped after 1 min (SERT and DAT) and 3 min (NET), respectively. Cells were lysed with 1% SDS and the released radioactivity was quantified by liquid scintillation counting. All determinations were performed in duplicate or triplicate.
# (§4) The release of [^3H] labelled substrate was expressed as fractional rate (i.e., the radioactivity released within one fraction was expressed as a percentage of the total radioactivity present in the cells at the beginning of that fraction). Drug-induced release was calculated by subtracting the estimated basal release from total release during the first 8 min of drug exposure and is expressed as a percentage of radioactivity in the cell at the beginning of drug exposure. Data were normalized by using cpm values with no substance present (only solvent) as 100%. IC50 values were calculated using non-linear regression fits performed with Prism software (GraphPad 5.0, San Diego, CA, U.S.A.). Data transformed into Dixon plots were fitted by linear regression.
# [6] = stated without reference; cited from earlier work
# human NET [7] = target: T1, human NET; remark: listed apart in the source
# human SERT [8] = target: T2, human SERT
# Protocol: as §1, §2
# human DAT [9] = target: T3, human DAT; remark: listed apart in the source
# Protocol: as §1, §2
# human DAT [10] = target: T3, human DAT; assay: cell-based
# Protocol: as §3, §4
# human SERT [11] = target: T2, human SERT; remark: listed apart in the source
# in vivo = settings: human, plasma, po, 50 mg
# [12] = ref Lin and Tsai, 2006; cited from earlier work
# [13] = IC50 uptake inhibition NET in the absence of cocaine
# [14] = IC50 uptake inhibition DAT in the absence of cocaine, allosteric interaction experiment, dopamine uptake
# [15] = IC50 uptake inhibition DAT, HEK293 stably expressing human DAT, substrate [3H]dopamine 0.1 μM, 5 min preincubation
# T2 sequence (P31645 whole entry): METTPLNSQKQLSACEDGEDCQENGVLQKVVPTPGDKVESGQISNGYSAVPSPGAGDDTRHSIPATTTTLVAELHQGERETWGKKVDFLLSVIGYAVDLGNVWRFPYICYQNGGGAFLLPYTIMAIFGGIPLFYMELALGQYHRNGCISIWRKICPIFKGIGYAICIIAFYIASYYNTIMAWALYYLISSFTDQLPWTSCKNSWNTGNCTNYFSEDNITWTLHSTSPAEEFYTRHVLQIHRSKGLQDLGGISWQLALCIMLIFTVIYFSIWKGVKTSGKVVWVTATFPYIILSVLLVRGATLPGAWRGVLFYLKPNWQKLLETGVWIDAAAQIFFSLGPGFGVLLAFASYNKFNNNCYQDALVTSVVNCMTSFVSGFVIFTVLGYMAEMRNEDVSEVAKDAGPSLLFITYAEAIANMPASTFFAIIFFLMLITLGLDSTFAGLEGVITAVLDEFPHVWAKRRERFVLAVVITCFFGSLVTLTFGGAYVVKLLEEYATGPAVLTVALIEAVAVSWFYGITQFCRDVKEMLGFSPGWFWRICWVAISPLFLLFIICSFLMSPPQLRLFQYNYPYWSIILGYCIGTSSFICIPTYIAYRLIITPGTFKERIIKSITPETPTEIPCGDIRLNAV
# T1 sequence (P23975 whole entry): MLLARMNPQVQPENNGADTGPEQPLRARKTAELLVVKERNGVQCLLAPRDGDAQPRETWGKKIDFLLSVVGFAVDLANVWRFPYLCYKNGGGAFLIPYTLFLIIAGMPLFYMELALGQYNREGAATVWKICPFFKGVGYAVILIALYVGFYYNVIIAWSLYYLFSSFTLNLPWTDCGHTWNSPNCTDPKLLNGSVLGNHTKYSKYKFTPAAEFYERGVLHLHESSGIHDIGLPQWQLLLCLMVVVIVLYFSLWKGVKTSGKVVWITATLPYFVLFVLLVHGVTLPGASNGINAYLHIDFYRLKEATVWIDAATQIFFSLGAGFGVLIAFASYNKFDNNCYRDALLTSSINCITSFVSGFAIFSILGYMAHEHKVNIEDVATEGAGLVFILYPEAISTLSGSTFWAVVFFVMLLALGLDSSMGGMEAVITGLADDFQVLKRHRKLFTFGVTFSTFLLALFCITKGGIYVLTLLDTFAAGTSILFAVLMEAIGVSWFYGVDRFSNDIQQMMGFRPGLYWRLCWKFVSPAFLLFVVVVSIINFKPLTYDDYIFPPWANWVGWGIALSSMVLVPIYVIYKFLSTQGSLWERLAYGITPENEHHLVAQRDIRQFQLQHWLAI
smiles,measurement,setting,value
NC1=NCC(c2ccccc2)O1 (stereo not drawn) [aminorex],IC50,human NET [1]; IC50 uptake inhibition NET,0.33 µM and < 1 µM
same,IC50,human NET [1]; [13],1.97 ± 1.2 µM
same,IC50,human SERT [2]; IC50 uptake inhibition SERT,18.4 ± 1.12 µM
same,IC50,human SERT [2]; IC50 uptake inhibition SERT in the absence of cocaine,26.3 ± 1.03 µM
same,time aminorex could be detected in human urine,[3],up to 54 h
same,substrate efflux NET,"human NET [4]; 3 or 10 μM aminorex, presence and absence of 10 μM monensin",slight increase; also recorded: only a slight response
same,Dixon plot: binding relative to cocaine at DAT,human DAT [5]; uptake inhibition with one inhibitor varied at fixed concentration of the other,mutually exclusive manner
same,pKa,[6],7.4
same,Dixon plot: binding relative to cocaine at NET,human NET [7],mutually exclusive manner
same,substrate efflux SERT,human SERT [8],strong release; also recorded: significant substrate release
same,substrate efflux DAT,"human DAT [9]; 50 μM aminorex, presence and absence of 10 μM monensin",no releasing effect; also recorded: completely absent
same,IC50,human DAT [10]; [14],0.71 ± 1.05 µM
same,IC50,human DAT [10]; [15],0.85 µM and 0.855 µM and < 1 µM
same,Dixon plot: binding relative to cocaine at SERT,human SERT [11],mutually exclusive manner
same,SERT inhibited at higher concentrations than NET and DAT,human SERT [11],20 fold
same,SERT inhibitory effect compared to cocaine,human SERT [11],more than 10 fold
c1ccc([C@H]2CN3CCSC3=N2)cc1 [levamisole],IC50,human NET [1]; IC50 uptake inhibition NET,74.5 µM
same,IC50,human NET [1]; [13],521 ± 2.3 µM
same,substrate efflux NET,"human NET [4]; 100 μM levamisole, absence of monensin, [3H]MPP+ preloaded",slight increase; also recorded: slight increased substrate efflux
same,less potent than cocaine in blocking dopamine uptake,human DAT [5]; relative to cocaine,300 fold
same,pKa,[6],7
same,less potent than cocaine in blocking norepinephrine uptake,human NET [7],100 fold
same,Cmax,in vivo,~1500 nM
same,substrate efflux DAT,"human DAT [9]; 100 μM levamisole, absence of monensin, [3H]dopamine preloaded",no efflux was observed; also recorded: could not detect substrate efflux
same,blood–brain barrier permeation,[12],readily permeates the blood–brain barrier
same,IC50,human DAT [10]; [14],476 ± 1.54 µM
same,IC50,human DAT [10]; [15],209.9 ± 1.31 µM

# From article PMC4077236 (Neurochemistry International, 2014)
